Reference: paper PMC11374673, “Discovery of isoquinoline sulfonamides as allosteric gyrase inhibitors with activity against fluoroquinolone-resistant bacteria” (Nature Chemistry, 2024)
Converted amounts (≈) assume the structure as drawn. Like-named read-outs stand apart in the source and are kept apart here.

Tests used:
E. coli W3110 = assay: MIC by broth microdilution; assay type: cell-based, Escherichia coli; settings: for MIC: broth microdilution, read-out: MIC E. coli W3110; for antimicrobial activity: relative to parent compound
Experimental: (§1) MIC was determined by broth microdilution. Single-colony cultures were grown to exponential phase (OD600 of 0.5) aerobically at 37 °C. In case of strains from the Keio collection, 50 µg ml^−1 kanamycin was supplemented to the media to ascertain a homogeneous population. The bacterial suspensions were diluted 100-fold in CAMHB and 50 µl was added to a twofold serial dilution series of test compounds (50 µl per well) in polypropylene 96-well microtitre plates to reach a volume of 100 µl. The plates were sealed with breathable membranes and incubated overnight at 37 °C with constant shaking (600 r.p.m.).

K. pneumoniae ATCC 29665 = assay: MIC by broth microdilution; assay type: cell-based, Klebsiella pneumoniae; settings: read-out: MIC K. pneumoniae ATCC 29665
Experimental: as §1

[1] = Klebsiella pneumoniae, ATCC29665, broth microdilution

Compound	MIC (E. coli W3110; Escherichia coli, W3110, WT)	MIC (K. pneumoniae ATCC 29665; [1])	MIC (K. pneumoniae ATCC 29665; broth microdilution)	MIC (E. coli W3110; WT)	antimicrobial activity (E. coli W3110)
N#Cc1ccccc1-c1ccc(CNCCNS(=O)(=O)c2cccc3cnccc23)cc1 [Compound 72]	25 µM (≈ 11.1 µg/mL)	50 µM (≈ 22.1 µg/mL)	–	–	–
Cc1ccccc1-c1ccc(CNCCNS(=O)(=O)c2cccc3cnccc23)cc1 [Compound 71]	12.5 µM (≈ 5.39 µg/mL)	50 µM (≈ 21.6 µg/mL)	–	–	–
O=S(=O)(NCCNCc1ccc(-c2ccc3c(c2)OCO3)cc1)c1cccc2cnccc12 [Compound 77]	> 50 µM	> 50 µM	>50 µM	>50 µM	–
Cc1ccc(-c2ccc(CNCCNS(=O)(=O)c3cccc4cnccc34)cc2)cc1 [Compound 62]	> 50 µM	> 50 µM	>50 µM	>50 µM	–
O=S(=O)(NCCNCc1ccc(-c2ccccc2)nc1)c1cccc2cnccc12 [Compound 80]	> 50 µM	> 50 µM	>50 µM	>50 µM	–
O=S(=O)(NCCNCc1ccc(-c2cccc(C(F)(F)F)c2)cc1)c1cccc2cnccc12 [Compound 69]	25 µM (≈ 12.1 µg/mL)	> 50 µM	>50 µM	–	–
O=S(=O)(NCCNCc1ccc(-c2cccnc2)nc1)c1cccc2cnccc12 [Compound 79]	> 50 µM	> 50 µM	>50 µM	>50 µM	–
O=S(=O)(NCCNCc1ccc(-c2cccnc2)c(Cl)c1)c1cccc2cnccc12 [Compound 83]	> 50 µM	> 50 µM	>50 µM	>50 µM	–
Cc1cccc(-c2ccc(CNCCNS(=O)(=O)c3cccc4cnccc34)cc2)c1 [Compound 67]	> 50 µM	> 50 µM	>50 µM	>50 µM	–

Further lines, with some results ahead:

MIC (E. coli W3110; Escherichia coli, W3110, WT)	MIC (K. pneumoniae ATCC 29665; [1])	MIC (K. pneumoniae ATCC 29665; broth microdilution)	MIC (E. coli W3110; WT)	Compound	antimicrobial activity (E. coli W3110)
50 µM (≈ 23.5 µg/mL)	> 50 µM	>50 µM	–	O=S(=O)(NCCNCc1ccc(-c2ccc(F)cc2)c(Cl)c1)c1cccc2cnccc12 [Compound 86]	–
12.5 µM (≈ 5.67 µg/mL)	12.5 µM (≈ 5.67 µg/mL)	–	–	O=S(=O)(NCCNCc1ccc(-c2ccc(F)cc2)c(F)c1)c1cccc2cnccc12 [Compound 90]	–
> 50 µM	> 50 µM	>50 µM	>50 µM	O=S(=O)(NCCNCc1ccc(-c2ccccc2)c(Cl)c1)c1cccc2cnccc12 [Compound 84]	–
12.5 µM (≈ 5.44 µg/mL)	25 µM (≈ 10.9 µg/mL)	–	–	O=S(=O)(NCCNCc1ccc(-c2ccccc2)c(F)c1)c1cccc2cnccc12 [Compound 88]	–
> 50 µM	> 50 µM	>50 µM	>50 µM	O=S(=O)(NCCOCc1ccc(-c2cccnc2)cc1)c1cccc2cnccc12 [Compound 94]	abolished all activity
> 50 µM	> 50 µM	>50 µM	>50 µM	O=S(=O)(NCCNCc1ccc(-c2ccc(F)nc2)c(Cl)c1)c1cccc2cnccc12 [Compound 85]	–
> 50 µM	50 µM (≈ 21.6 µg/mL)	–	>50 µM	CN(CCNS(=O)(=O)c1cccc2cnccc12)Cc1ccc(-c2cccnc2)cc1 [Compound 95]	abolished all activity
